According to article PMC7318034, “Safety, Pharmacokinetics, and Drug-Drug Interaction Potential of Intravenous Durlobactam, a β-Lactamase Inhibitor, in Healthy Subjects” (Antimicrobial Agents and Chemotherapy, 2020):
Each block holds one molecule with its values, some of them ahead of it.

Legend:
[1] = Part C single-dose drug-drug interaction plasma PK in healthy subjects; details: for half-life / AUC(0-t) / clearance / Cmax / Vd: human, in vivo; for clearance: CL; for Vd: Vss
Description: (§1) The blank control matrix was made up of human plasma (BioreclamationIVT) diluted 1:1 with SigmaFast (reconstituted protease inhibitor cocktail tablet [product S8820; Sigma-Aldrich, St. Louis, MO] in 10 ml of water) for preparation of calibration standards and QC samples. […] A 100-μl aliquot of the supernatant was transferred to 96-well plates. Samples were diluted further with 400 μl of water, and 5 μl of sample was injected into the LC-MS/MS system for analysis. […] The LLOQ for all analytes was 5 ng/ml.
(§2) AUC was calculated using the log-linear trapezoidal rule.
(§3) Pharmacokinetic parameters were summarized at each assessment time point using the mean ± standard deviation (SD), the percent coefficient of variation (CV), median, minimum, and maximum. Single-ascending-dose study data were assessed for dose proportionality using Cmax and AUC, and accumulation ratios was determined using repeat-dose cohorts. […] Noncompartmental analysis of PK parameters was performed using Phoenix WinNonlin (v6.4) software to determine PK parameters.

[2] = Part D multiple-dose coadministration of DUR, SUL and IMI-CIL, plasma PK in healthy subjects; details: for AUC / Cmax / Tmax: human, in vivo; for AUC: AUC0–tau
Description: as §1, §2, §3

[3] = clinical; details: human, 0.5 g
[4] = Urine PK (urinary excretion, renal clearance) in healthy subjects; details: for CL renal: human, CLr
[5] = cited from earlier work
[6] = AUC0–24, part C cohort 14, DUR 1 g + IMI-CIL 0.5 g + SUL 1 g, day 8
[7] = part C cohort 14, IMI-CIL 0.5 g alone, day 3
[8] = part C cohort 14, DUR 1 g + IMI-CIL 0.5 g + SUL 1 g, day 8
[9] = part C cohort 14, DUR 1 g + IMI-CIL 0.5 g, day 5
[10] = DUR 1 g + SUL 1 g + IMI-CIL 0.5 g q6h, day 11
[11] = DUR 1 g + SUL 1 g + IMI-CIL 0.5 g q6h, day 1
[12] = DUR 1 g + SUL 1 g + IMI-CIL 0.5 g q6h, day 1, median, n=10
[13] = DUR 1 g + SUL 1 g + IMI-CIL 0.5 g q6h, day 11, median
[14] = part C cohort 14, Day 8, placebo subjects (no DUR), n=2
[15] = part D cohort 15, Day 1, DUR + SUL + IMI-CIL q6h, mean, n=10
[16] = part D cohort 15, Day 11, DUR + SUL + IMI-CIL q6h, mean, n=10
[17] = 1 g, part C cohort 13, SUL 1 g alone, day 1
[18] = part C cohort 13, DUR 1 g + SUL 1 g coadministered, day 5
[19] = part C cohort 14, SUL 1 g + IMI-CIL 0.5 g, day 8

half-life [1]: 1.2 ± 0.2 h | AUC(0-t) [1, 6]: 46900 ± 6600 ng·h/mL | AUC(0-t) ([1]; AUC0–24, part C cohort 14, DUR 1 g + IMI-CIL 0.5 g, day 5): 47100 ± 7200 ng·h/mL | AUC(0-t) ([1]; AUC0–24, part C cohort 14, IMI-CIL 0.5 g alone, day 3): 49600 ± 9800 ng·h/mL | clearance [1, 7]: 173 mL/min | Cmax [1, 8]: 40700 ± 4900 ng/mL | Cmax [1, 9]: 44000 ± 6100 ng/mL | Cmax [1, 7]: 46000 ± 8300 ng/mL | Vd [1, 8]: 10.4 ± 0.9 L | Vd [1, 9]: 9.9 ± 1.2 L | Vd [1, 7]: 9.6 ± 1.4 L | CL [1, 8]: 10.9 ± 1.6 L/h | t1/2 [1, 8]: 1.2 ± 0.2 h | CL [1, 9]: 10.8 ± 1.8 L/h | t1/2 [1, 9]: 1.2 ± 0.2 h | Accum. index [2, 10]: 1.1 ± 0.04 | accumulation index ([2]; day 11 vs day 1): approximately 1 | AUC [2, 11]: 45600 ± 7000 ng·h/mL | AUC [2, 10]: 39400 ± 7200 ng·h/mL | Cmax [2, 11]: 38600 ± 6000 ng/mL | Cmax [2, 10]: 38000 ± 5600 ng/mL | Tmax [2, 12]: 0.5 h | Tmax [2, 13]: 0.5 h | CL renal ([3]; in vivo): 133 mL/min | CL renal ([4]; in vivo, part C cohort 14, Day 8, placebo subjects (no DUR), n=2): 206 mL/min | CL renal ([4]; in vivo, part D cohort 15, Day 11, DUR + SUL + IMI-CIL q6h, mean): 183 mL/min | Fe [4, 14]: 120.359 (9.364) % | Fe [4, 15]: 88.376% | Fe [4, 16]: 84.834%
Molecule: CC1(C)C[C@@H]1C(=O)N/C(=C\CCCCSC[C@H](N)C(=O)O)C(=O)O [CIL, cilastatin]
Ae [4, 14]: 601.795 (46.820) mg | Ae [4, 15]: 3535.03 mg | Ae [4, 16]: 424.168 mg

AUC(0-t) ([1]; AUC0–24): 43700 ± 9200 ng·h/mL | clearance [1]: 197 mL/min | Cmax [1]: 34400 ± 5300 ng/mL | half-life ([1]; t1/2): 1.2 ± 0.1 h | CL renal ([3]; urine, intravenous): 102 mL/min | CL renal ([4]; urine, intravenous, part C cohort 14, Day 8, placebo subjects (no DUR), n=2): 70.4 mL/min | CL renal ([4]; urine, intravenous, part D cohort 15, Day 11, DUR + SUL + IMI-CIL q6h, mean): 136 mL/min | Fe [4, 14]: 36.766 (11.368) % | Fe [4, 15]: 35.1762% | Fe [4, 16]: 54.343%
Molecule: C[C@@H](O)[C@H]1C(=O)N2C(C(=O)O)=C(SCCN=CN)C[C@H]12 [IMI, imipenem, reference compound]
Ae [4, 14]: 183.832 (56.842) mg | Ae [4, 15]: 1407.051 mg | Ae [4, 16]: 271.71 mg

half-life ([1]; 1 g): 1.3 ± 0.1 h | AUC(0-t) ([1]; 1 g, AUC0–24, part C cohort 13, SUL 1 g alone, day 1): 68500 ± 4700 ng·h/mL | clearance [1, 17]: 243 mL/min | Cmax [1, 17]: 20700 ± 700 ng/mL | Vd [1, 17]: 18 ± 1.6 L | AUC(0-t) ([1]; AUC0–24, part C cohort 13, DUR 1 g + SUL 1 g coadministered, day 5): 73000 ± 6200 ng·h/mL | AUC(0-t) [1, 6]: 80600 ± 21200 ng·h/mL | AUC(0-t) ([1]; AUC0–24, part C cohort 14, SUL 1 g + IMI-CIL 0.5 g, day 8): 81700 ± 5200 ng·h/mL | clearance [1, 18]: 230 mL/min | clearance [1, 8]: 217 mL/min | clearance [1, 19]: 205 mL/min | Cmax [1, 18]: 22000 ± 2700 ng/mL | Cmax [1, 19]: 24000 ± 2000 ng/mL | Vd [1, 18]: 18.1 ± 1.7 L | Vd [1, 8]: 15.2 ± 2.7 L | Vd [1, 19]: 15.4 ± 1.5 L | t1/2 [1, 18]: 1.3 ± 0.1 h | t1/2 [1, 19]: 1.3 ± 0.1 h | AUC [2, 11]: 76700 ± 5800 ng·h/mL | AUC [2, 10]: 67900 ± 7600 ng·h/mL | Cmax [2, 11]: 23900 ± 1300 ng/mL | Cmax [2, 10]: 22400 ± 6100 ng/mL | Tmax [2, 12]: 2.7 h | Tmax [2, 13]: 2.6 h
Molecule: CC1(C)[C@H](C(=O)O)N2C(=O)C[C@H]2S1(=O)=O [SUL, Sulbactam]

Molecule: colistin
nephrotoxicity, patients affected ([5]; patients treated with colistin): ≥ 40% | mortality rate ([5]; patients with hospital-acquired or ventilator-associated pneumonia treated with colistin-based antibiotic regimens): approximately 40%
